The values that follow are results of earlier work, collected in PMC5762609 (Journal of Pharmaceutical Analysis, 2016).

The structures appear in SMILES notation.

With `CC(=O)O[C@H]1C(=O)[C@]23C[C@H]2C[C@H]2OC[C@@]2(OC(C)=O)[C@H]3[C@H](OC(=O)c2ccccc2)[C@]2(O)C[C@H](OC(=O)[C@H](O)[C@@H](NC(=O)OC(C)(C)C)c3ccccc3)C(C)=C1C2(C)C` [Larotaxel], the Content in tissues result is “higher in rich-blood tissues, such as heart, liver, spleen, lung and kidney”; the Tissue distribution result was “distributed widely and rapidly”.
